Data set [1] has as its system Landrace pig bladder strips. Nature of the data set: In vitro functional model: field-stimulated bladder tissue strips. As to conditions: dose dependent over concentration range of 10^−9 to 10^−5 M; control agonist. How it is done: In vitro Functional Model
Compounds were evaluated for functional BK channel opening activity using tissue strips obtained from Landrace pig bladders. Landrace pig bladders were obtained from female Landrace pigs of 9-30 kg. Landrace pigs were euthanized with an intraperitoneal injection of pentobarbital solution, Somlethal®, J. A. Webster Inc., Sterling Mass. The entire bladder was removed and immediately placed into Krebs Ringer bicarbonate solution (composition, mM: NaCl, 120; NaHCO3, 20; dextrose, 11; KCl, 4.7; CaCl2, 2.5; MgSO4, 1.5; KH2PO4, 1.2; K2EDTA, 0.01, equilibrated with 5% CO2/95% O2 pH 7.4 at 37° C.). Propranolol (0.004 mM) was included in all of the assays to block β-adrenoceptors. The trigonal and dome portions were discarded. Strips 3-5 mm wide and 20 mm long were prepared from the remaining tissue cut in a circular fashion. The mucosal layer was removed. One end was fixed to a stationary glass rod and the other to a Grass FT03 transducer at a basal preload of 1.0 gram. Two parallel platinum electrodes were included in the stationary glass rod to provide field stimulation of 0.05 Hz, 0.5 milli-seconds at 20 volts. […] The maximal efficacy of each compound (expressed as % relative to P1075) is reported. […] Agonist potencies were also expressed as an index relative to P1075. The index was calculated by dividing the ED50 for P1075 by the ED50 for the test agonist in a given tissue. […]

Molecules are shown by their SMILES.

Three compounds from patent US20040192697A1, “Pyrrolopyridine potassium channel openers” (priority 2002, published 2004) can be followed below.

What is called melting point is the temperature of the solid-liquid transition. `N#Cc1c(N2CCC[C@H]2CO)[nH]c2cccnc12` [Example 10, (S)-2-(2-Hydroxymethyl-pyrrolidin-1-yl)-1H-pyrrolo[3,2-b]pyridine-3-carbonitrile] had a melting point of 207 to 209 °C.

`N#Cc1c(N2CCCCC2)[nH]c2cccnc12` [Example 18, 2-Piperidin-1-yl-1H-pyrrolo[3,2-b]pyridine-3-carbonitrile] registered a melting point of 241 to 242 °C.

With `CCC(C)(C)N=C(NC#N)Nc1cccnc1` [Example P1075], the “effect on stimulated twitch of bladder strips” value in data set [1] was “completely eliminated the stimulated twitch”.
